≈ marks a conversion by molar mass, not a printed value. Where two headings read alike, the source gives them in different places.
What was measured:
[1] = Salt screen: stability on drying and humidity exposure, hygroscopicity; format: physicochemical
Description: A stock solution with concentration of 85 mg/mL was prepared in TFE. Stock solutions of fourteen different counter ions (e.g., benzenesulfonic acid, benzoic acid, phosphoric acid, sulfuric acid, citric acid, glucuronic acid, glutamic acid, hydrochloric acid, malic acid, methanesulfonic acid, Succinic acid, tartaric acid, toluenesulfonic acid, and acetic acid) were prepared in EtOH. 352 μL (30 mg) of the freebase solution was added to each vial. 1.1 and/or 2.2 equivalents of the appropriate counter ion stock solution were added to each vial. The vials were left to stir at 45° C. for two hours before being uncapped and left to evaporate at 40° C. with stirring overnight in atmosphere. The vials were then placed under active vacuum at 50° C. for 3 hours to dry thoroughly. Approximately, 20 volumes (600 μL) of screening solvent were then added to each vial, and the samples were heated to 45° C. with stirring (450 rpm). […] After two hours, the samples were left to stir at room temperature.
Crystalline salts were characterized and evaluated for viability based on melting point, crystallinity, stability on drying and humidity exposure, water solubility, polymorphism, and acceptability of counter-ion.

[2] = Solubility of Compound (I) free base in solvents at 50° C.; format: physicochemical; conditions: organic solvent or mixture
[3] = Brain penetration potential
[4] = Phase 1 single and multiple ascending dose study (safety, tolerability, pharmacokinetics); format: in vivo, human; conditions: five SAD cohorts and three MAD cohorts
[5] = as above; format: in vivo, human
Description: Compound (I) was administered as the monophosphate salt. Screening of subjects occurred within 28 days prior to (first) dosing. Subjects participated in only 1 cohort in only 1 study part.
Part 1 (SAD): Six (6) cohorts of 8 subjects each (6 active and 2 placebo) were evaluated. […] The first cohort (Cohort S1) included a sentinel group (1 active and 1 placebo) which was dosed at least 24 hours before the remaining 6 subjects (5 active and 1 placebo). Dosing of the remaining 6 subjects in Cohort S1 was conducted following a safety evaluation of the sentinel group.
Blood samples were collected pre-dose on Day-1, on Day 2, and on Day 5 to measure pharmacodynamic (PD) biomarker (tryptase) concentration.
Part 2 (MAD): Four (4) cohorts of 8 subjects each (6 active and 2 placebo) were evaluated.
Plasma samples were collected pre-dose on Days 1-10 for PK assessment. Plasma samples were also collected through 24 hours post-dose on Day 1 and through 96 hours post-dose on Day 10 for PK assessment. Blood samples were collected pre-dose on Day 1, and pre-dose on Days 2, 5, and 9 to measure PD biomarker (tryptase) concentration. […] Safety was assessed according to incidence and severity of adverse events in recipients of Compound (I) as compared with placebo.

behaviour of solids upon humidification (high humidity) [1] | solubility ([2]; ACN:water (7:3 vol.), sample 82-2, read-out: Solubility (mg/mL) at 50° C.) [mg/mL] | solubility ([2]; t-BuOH, sample 83-1, read-out: Solubility (mg/mL) at 50° C.) [mg/mL] | solubility ([2]; t-BuOH:water (9:1 vol.), sample 83-2, read-out: Solubility (mg/mL) at 50° C.) [mg/mL] | brain penetration potential [3] | Compound | tolerability [4] | severity of adverse events ([5]; abdominal pain, decreased appetite, fatigue, headache, nausea, mostly not related to the drug) | increase in systemic exposure with dose ([5]; across SAD and MAD cohorts) | linearity of pharmacokinetics ([5]; across the dose ranges in SAD and MAD cohorts) | half-life ([5]; human, plasma, oral, healthy adult subjects, given as monophosphate salt, read-out: mean half-life (t1/2)) [h] | Vd/F ([5]; human, plasma, oral, healthy adult subjects, read-out: geometric mean Vz/F) [L] | Tmax ([5]; human, plasma, single oral doses 15-200 mg, fasting, healthy adult subjects, given as monophosphate salt, read-out: median Tmax) [h] | findings in laboratory or vital signs parameters ([5]; in vivo) | serious AEs ([5]; in vivo) | steady state expected to be reached ([5]; once-daily oral dosing) [days]
deliquescing |  |  |  |  | tosylate |  |  |  |  |  |  |  |  |  | 
 | 8.6 (≈ 16.3 mM) | < 2.6 | < 2.6 | limited | C[C@](N)(c1ccc(F)cc1)c1cnc(N2CCN(c3ncnn4cc(-c5cnn(CCO)c5)cc34)CC2)nc1 [Compound (I), (S)-2-(4-(4-(4-(5-(1-amino-1-(4-fluorophenyl)ethyl)pyrimidin-2-yl)piperazin-1-yl)pyrrolo[1,2-f][1,2,4]triazin-6-yl)-1H-pyrazol-1-yl)ethanol] | well-tolerated | Only Grade 1 adverse events | dose-proportional increase | linear | 20 to 28 | 753 to 973 | 1.5 to 6 | no clinically relevant findings | No serious AEs were reported | ≤ 7

Reference: patent US20240254130A1, “SALT AND SOLID FORMS OF A KINASE INHIBITOR” (Blueprint Medicines Corporation, priority 2021, published 2024)
